According to patent publication US9518088B2, “Peptide-phospholipid conjugates” (Indiana University Research and Technology Corporation, priority 2011, dated 2016):
Read-outs that look alike come from different tables or passages of the source.

Columns and labels:
CD36 macrophage receptor = target: T1, CD36 macrophage receptor (Mus musculus, UniProt Q08857); assay: CD36 macrophage receptor binding competition assay (biotinylated CuOxLDL binding to J774 macrophages); set-up: species or system murine
T1 construct: endogenous in cells; host or cells: J774 murine macrophage cell line
Text: Data are given as relative light units (RLU) per 100 ms (milliseconds). The plot is a representative experiment chosen from among at least four experiments. […] Data are shown as mean±SD (Standard Deviation) of B/B0 from 2 independent experiments with triplicate determination. […] Data are shown as mean±SD of B/B0 from two independent experiments with triplicate determination. Data in FIG. 3B and FIG. 3C were produced in parallel experiments.
The fixed concentration of biotinylated CuOxLDL (1.8 pmol apoB/mL, corresponding 1 μg apoB/mL or 0.14 nmol PC-epitopes/mL) was preincubated with compound 6, the control peptide TGTKGG, CuOxLDL, or native LDL, added at the concentrations indicated on the graphs, and then tested for binding as described in the experimental section. The highest CuOxLDL concentration tested was 200 μg/mL, which corresponds to approximately 28.3 nmoles of PC-epitopes/mL, as estimated from the previous observation that 1 mole of apoB-100 from CuOxLDL contains 78±15 moles of covalently attached phosphorus^10, which it is assumed are PC-epitopes only. The concentration of native LDL is plotted at equal protein concentration to CuOxLDL (and thus not as molar concentration of PC-epitopes). Each data point represents the mean and SD of 2 independent experiments of triplicate wells.
Each of peptide-phospholipid conjugates 6 and 23-27 were tested as competitors in a CD36 macrophage receptor binding competition assay, where fixed concentrations of CuOxLDL were incubated with the serially diluted competitor and controls in PBS buffer. The IC50 of each competitor is reported below in Table 1, confirming the affinity of the compounds of the invention for the CD36 macrophage receptor:
Binding of biotinylated OxLDL ligands to murine macrophages plated in microtiter wells was assessed by a chemiluminescent binding assay. Isolated human LDL was biotinylated according to manufacturer's protocol (Catalog No. 21326; Pierce Biotechnology). Native and biotinylated native LDL were subjected to copper sulfate oxidation in parallel to prepare unlabelled and biotinylated CuOxLDL ligands, respectively. It has been previously shown that CuOxLDL contains approximately 78 moles of PC-epitopes per mole of apoB-100 (the sole protein on LDL). The biotinylated native LDL and CuOxLDL ligands of equal protein concentration were serially diluted and tested for binding to adherent macrophages. The specificity of the binding of biotinylated CuOxLDL to macrophages was tested in competition experiments, where fixed concentrations of biotinylated CuOxLDL were incubated with the serially diluted competitor and controls in PBS. The ligand-competitor solutions were incubated overnight at 4° C. Murine macrophages from the J774 cell line were cultured in 10% fetal bovine serum in DMEM (DMEM-10) and plated in 100 μL L929-fibroblast conditioned media at 100,000 or 25,000 cells/well, respectively, in sterile 96-well flat-bottom white plates (Greiner Bio-One). The plating media consisted of 20% L929-fibroblast conditioned DMEM-10 and 80% fresh DMEM-10 and served as a source of growth factors, including macrophage colony-stimulating factor. After 72 hours, the plates were washed gently 5 times with PBS using a microtiter plate washer (Dynex Technologies, Chantilly, Va.), and wells were blocked with ice-cold 200 μL DMEM for 30 min, while plates were kept on ice. After washing, macrophages were incubated with ice-cold ligand and ligand-competitor solutions (100 μL/well) for 2 hours on ice, washed again, and fixed with ice-cold 3.7% formaldehyde in PBS for 30 min in the dark. After fixing the macrophages, the remaining part of the assay was carried out at room temperature. Macrophage-bound biotinylated OxLDL ligands were detected with NeutrAvidin-conjugated alkaline phosphatase (Pierce Biotechnology), LumiPhos 530 (Lumigen, Southfield, Mich.), and a Dynex Luminometer (Dynex Technologies). […]

[1] = Solubility in water / aqueous buffers
[2] = Stability of the conjugates
macrophages and T-cells = assay: Affinity for macrophages and T-cells; assay type: cell-based

T1 sequence (Q08857 whole entry): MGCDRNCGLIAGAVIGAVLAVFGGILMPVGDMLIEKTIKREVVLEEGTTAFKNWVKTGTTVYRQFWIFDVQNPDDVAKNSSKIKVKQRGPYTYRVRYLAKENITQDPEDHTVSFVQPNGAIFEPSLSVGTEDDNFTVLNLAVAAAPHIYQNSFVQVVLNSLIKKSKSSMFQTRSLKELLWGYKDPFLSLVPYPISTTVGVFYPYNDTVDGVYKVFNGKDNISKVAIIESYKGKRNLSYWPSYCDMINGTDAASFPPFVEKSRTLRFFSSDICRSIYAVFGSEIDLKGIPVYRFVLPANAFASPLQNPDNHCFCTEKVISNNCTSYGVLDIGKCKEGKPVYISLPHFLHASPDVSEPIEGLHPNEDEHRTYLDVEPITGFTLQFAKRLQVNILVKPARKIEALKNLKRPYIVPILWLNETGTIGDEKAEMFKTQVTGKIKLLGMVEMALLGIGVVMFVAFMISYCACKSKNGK

CCCCCCCCCCCCCCCC(=O)OC[C@H](COP(=O)([O-])OCC[N+](C)(C)C)OC(=O)CCCCN(C)CCCC[C@H](NC(C)=O)C(=O)NCC(=O)NCC(=O)O [Compound 23]
IC50 (CD36 macrophage receptor; competitor serially diluted, fixed concentration of CuOxLDL, PBS buffer, J774 macrophages, read-out: IC50): 38 µM

CCCCCCCCCCCCCCCC(=O)OC[C@H](COP(=O)([O-])OCC[N+](C)(C)C)OC(=O)CCCCN(C)CCCC[C@H](NC(=O)[C@@H](NC(=O)CNC(=O)[C@@H](NC(C)=O)[C@@H](C)O)[C@@H](C)O)C(=O)NCC(=O)NCC(=O)O [Compound 6]
water solubility / solubility in aqueous buffers [1]: soluble in aqueous buffers | stability [2]: stable | IC50 (CD36 macrophage receptor): 60 µM | competition with biotinylated CuOxLDL binding to macrophages (CD36 macrophage receptor; J774 macrophages, fixed biotinylated CuOxLDL 1.8 pmol apoB/mL (1 μg apoB/mL), FIG. 3B/3C, mean of 2 independent experiments, triplicate wells): more than 99% | affinity for macrophages and T-cells (macrophages and T-cells): showed affinity for macrophages and T-cells

CCCCCCCCCCCCCCCC(=O)OCC(COP(=O)([O-])OCC[N+](C)(C)C)OC(=O)CCCCOCCCC[C@H](NC(=O)[C@H](C)NC(=O)[C@H](C)NC(C)=O)C(=O)N[C@@H](C)C(=O)N[C@@H](Cc1ccc(O)cc1)C(=O)O (stereo partly shown) [Compound 3]
water solubility / solubility in aqueous buffers [1]: poor water solubility | stability [2]: stable

CCCCCCCCCCCCCCCC(=O)OC[C@H](COP(=O)([O-])OCC[N+](C)(C)C)OC(=O)CCCCN(C)CCCC[C@H](NC(=O)[C@H](Cc1ccccc1)NC(=O)[C@H](C)NC(C)=O)C(=O)NCC(=O)NCC(=O)O [Compound 27]
IC50 (CD36 macrophage receptor): 47 µM

CCCCCCCCCCCCCCCC(=O)OC[C@H](COP(=O)([O-])OCC[N+](C)(C)C)OC(=O)CCCCN(C)CCCC[C@H](NC(=O)[C@H](Cc1ccccc1)NC(C)=O)C(=O)NCC(=O)NCC(=O)O [Compound 26]
IC50 (CD36 macrophage receptor): 47 µM

CCCCCCCCCCCCCCCC(=O)OC[C@H](COP(=O)([O-])OCC[N+](C)(C)C)OC(=O)CCCCN(C)CCCC[C@H](NC(=O)[C@@H](NC(C)=O)C(C)C)C(=O)NCC(=O)NCC(=O)O [Compound 25]
IC50 (CD36 macrophage receptor): 55 µM

CCCCCCCCCCCCCCCC(=O)OC[C@H](COP(=O)([O-])OCC[N+](C)(C)C)OC(=O)CCCCN(C)CCCC[C@H](NC(=O)[C@H](C)NC(C)=O)C(=O)NCC(=O)NCC(=O)O [Compound 24]
IC50 (CD36 macrophage receptor): 131 µM

CCCCCCCCCCCCCCCC(=O)OC[C@H](COP(=O)([O-])OCC[N+](C)(C)C)OC(=O)CCCCOCCCC[C@H](NC(=O)[C@@H](NC(=O)CNC(=O)[C@@H](NC(C)=O)[C@@H](C)O)[C@@H](C)O)C(=O)NCC(=O)N[C@@H](Cc1ccc(O)cc1)C(=O)O [Compound 4]
water solubility / solubility in aqueous buffers [1]: poor water solubility | stability [2]: stable

CCCCCCCCCCCCCCCC(=O)OC[C@H](COP(=O)([O-])OCC[N+](C)(C)C)OC(=O)CCCCCCCCC[C@H](NC(=O)[C@@H](NC(=O)CNC(=O)[C@@H](NC(C)=O)[C@@H](C)O)[C@@H](C)O)C(=O)NCC(=O)N[C@@H](Cc1ccc(O)cc1)C(=O)O [Compound 5]
water solubility / solubility in aqueous buffers [1]: poor water solubility | stability [2]: stable
